Measurements reported in patent publication US20200017913A1, “METHODS AND SYSTEMS FOR PREDICTING TREATMENT RESPONSES IN SUBJECTS” (PRESIDENT AND FELLOWS OF HARVARD COLLEGE, priority 2017, published 2020).

These molecules were tested on pancolitis in Patient #2 (assay: Clinical treatment course of Patient #2 with pancolitis). Conditions: Patient #2, pancolitis flare, conventional therapies.
Format: in vivo, human
Experimental: Patient #2 was evaluated by a general intestinal doctor […] to receive treatment for bloody stool. […]
This included a glucocorticoid stress dose and a vancomycin treatment.
At that point, the tissue obtained in the most recent colonoscopic biospy was gene expression (RNA) profiled according to an exemplary methodology of the present disclosure. […] In this case, the drug was indigo, an over the counter supplement, also known as Qing Dai.

Row | Structure (SMILES) | clinical response to treatment
1 | Sc1ncnc2nc[nH]c12 [6-mercaptopurine] | no improvement after 3 months
2 | CO[C@H]1/C=C/O[C@@]2(C)Oc3c(C)c(O)c4c(O)c(c5c(nc6cc(C)ccn65)c4c3C2=O)NC(=O)/C(C)=C\C=C\[C@H](C)[C@H](O)[C@@H](C)[C@@H](O)[C@@H](C)[C@H](OC(C)=O)[C@@H]1C [Rifaximin] | transient improvement for a couple weeks
3 | C=CC[C@@H]1/C=C(\C)C[C@H](C)C[C@H](OC)[C@H]2O[C@@](O)(C(=O)C(=O)N3CCCC[C@H]3C(=O)O[C@H](/C(C)=C/[C@@H]3CC[C@@H](O)[C@H](OC)C3)[C@H](C)[C@@H](O)CC1=O)[C@H](C)C[C@@H]2OC [tacrolimus] | mild improvement but no remission
4 | CN[C@H](CC(C)C)C(=O)N[C@H]1C(=O)N[C@@H](CC(N)=O)C(=O)N[C@H]2C(=O)N[C@H]3C(=O)N[C@H](C(=O)N[C@H](C(=O)O)c4cc(O)cc(O)c4-c4cc3ccc4O)[C@H](O)c3ccc(c(Cl)c3)Oc3cc2cc(c3O[C@@H]2O[C@H](CO)[C@@H](O)[C@H](O)[C@H]2O[C@H]2C[C@](C)(N)[C@H](O)[C@H](C)O2)Oc2ccc(cc2Cl)[C@H]1O [vancomycin] | transient effect that lasted about a week
